# Reference: patent US20250230193A1, “CYCLIC COMPOUND HAVING SELECTIVE KRAS INHIBITORY EFFECT ON HRAS AND NRAS” (CHUGAI SEIYAKU KABUSHIKI KAISHA, priority 2022, published 2025)
# Where a SMILES comes first, the peptide text is derived from it. Bridges are numbered along the chain shown (N, C = ends). [ ]: non-standard residue; d: D form. The star is where a group is joined. hPhe(3-Cl-4-CF3) = N[C@@H](CCc1ccc(C(F)(F)F)c(Cl)c1)C(=O)O; NPrPhe(4-CF3) = CCCN[C@@H](Cc1ccc(C(F)(F)F)cc1)C(=O)O; NMeGly(cPent) = CN[C@H](C(=O)O)C1CCCC1; NMeD = CN[C@@H](CC(=O)O)C(=O)O; NMeL = CN[C@@H](CC(C)C)C(=O)O; Morpholide = C1CN(*)CCO1; Ac5c = NC1(C(=O)O)CCCC1; NPrGly = CCCNCC(=O)O; Sar = CNCC(=O)O
# Key:
# [1] = molecular target: GDP-bound HRAS wild-type protein (Homo sapiens, UniProt P01112); assay: Binding to HRAS by surface plasmon resonance (SPR), Single Cycle Kinetics; conditions: for HRAS/KRAS (ratio of KD value with respect to HRAS to KD value with respect to KRAS): GDP-bound HRAS wild-type vs GDP-bound KRAS wild-type
# [2] = molecular target: GDP-bound NRAS wild-type protein (Homo sapiens, UniProt P01111); assay: Binding to NRAS by surface plasmon resonance (SPR), Single Cycle Kinetics; conditions: for NRAS/KRAS (ratio of KD value with respect to NRAS to KD value with respect to KRAS): GDP-bound NRAS wild-type vs GDP-bound KRAS wild-type
# Chain of GDP-bound NRAS wild-type protein (P01111 whole entry): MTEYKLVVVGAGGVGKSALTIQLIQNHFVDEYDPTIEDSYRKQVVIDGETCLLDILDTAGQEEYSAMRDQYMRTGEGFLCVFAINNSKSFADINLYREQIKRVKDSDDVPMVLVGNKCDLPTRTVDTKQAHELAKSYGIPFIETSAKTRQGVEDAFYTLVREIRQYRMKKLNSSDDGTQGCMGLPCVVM
# Chain of GDP-bound HRAS wild-type protein (P01112 whole entry): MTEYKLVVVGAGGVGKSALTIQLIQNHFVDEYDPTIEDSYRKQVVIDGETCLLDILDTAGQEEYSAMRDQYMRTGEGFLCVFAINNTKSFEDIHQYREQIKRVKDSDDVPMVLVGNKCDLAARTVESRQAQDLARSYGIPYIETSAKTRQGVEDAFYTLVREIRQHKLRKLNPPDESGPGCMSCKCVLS
smiles,measurement,setting,value
CCCCO[C@@H]1C[C@H]2C(=O)NC3(CCC3)C(=O)N(C)[C@@H](C3CCCC3)C(=O)N(C)[C@H](C(=O)N3CCOCC3)CC(=O)N(C)[C@@H](CC(C)C)C(=O)N[C@@H]([C@@H](C)CC)C(=O)N(C)CC(=O)N(C)[C@H]3CCCCN(C3=O)[C@@H](Cc3ccc(C(F)(F)F)cc3)C(=O)N(C)CC(=O)N[C@@H](CCc3cc(F)c(C(F)(F)F)c(F)c3)C(=O)N2C1 [PP1013],HRAS/KRAS (ratio of KD value with respect to HRAS to KD value with respect to KRAS),[1]; SPR,C (A compound having a KD ratio of 0.1 or more and less than 3 is denoted as C)
same,NRAS/KRAS (ratio of KD value with respect to NRAS to KD value with respect to KRAS),[2]; SPR,C (A compound having a KD ratio of 0.1 or more and less than 3 is denoted as C)
CCO[C@@H]1C[C@H]2C(=O)NC3(CCC3)C(=O)N(C)[C@@H](C3CCCC3)C(=O)N(C)[C@H](C(=O)N3CCC3)CC(=O)N(C)[C@@H](CC)C(=O)N[C@@H]([C@@H](C)CC)C(=O)N(C)CC(=O)N(C)[C@H]3C/C=C\CCN(C3=O)[C@@H](Cc3ccc(C(F)(F)F)cc3)C(=O)N(C)CC(=O)N[C@@H](CCc3cc(F)c(C(F)(F)F)c(F)c3)C(=O)N2C1 [PP1091],HRAS/KRAS (ratio of KD value with respect to HRAS to KD value with respect to KRAS),[1]; SPR,B (a compound having 3 or more and less than 10 is denoted as B)
same,NRAS/KRAS (ratio of KD value with respect to NRAS to KD value with respect to KRAS),[2]; SPR,A (a compound having 10 or more and less than 20 is denoted as A)
CC[C@H](C)[C@@H]1NC(=O)[C@H](COC)N(C)C(=O)C[C@@H](C(=O)N2CCOCC2)N(C)C(=O)[C@H](C2CCCC2)N(C)C(=O)C2(CCC2)NC(=O)[C@@H]2CC(F)(F)CN2C(=O)[C@H](CCc2cc(F)c(C(F)(F)F)c(F)c2)NC(=O)CN(C)C(=O)[C@H](Cc2ccc(C(F)(F)F)cc2)N2CCCCC[C@@H](C2=O)N(C)C(=O)CN(C)C1=O [PP0834],HRAS/KRAS (ratio of KD value with respect to HRAS to KD value with respect to KRAS),[1]; SPR,B (a compound having 3 or more and less than 10 is denoted as B)
same,NRAS/KRAS (ratio of KD value with respect to NRAS to KD value with respect to KRAS),[2]; SPR,A (a compound having 10 or more and less than 20 is denoted as A)
CCC[C@H]1C(=O)N[C@@H]([C@@H](C)CC)C(=O)N(C)CC(=O)N(C)[C@H]2C/C=C\CCN(C2=O)[C@@H](Cc2ccc(C)cc2)C(=O)N(C)CC(=O)N[C@@H](CCc2ccc(Cl)c(Cl)c2)C(=O)N2C[C@H](OC3CCC3)C[C@H]2C(=O)NC2(CC(C)(C)C2)C(=O)N(C)[C@@H](C(CC)CC)C(=O)N(C)[C@H](C(=O)N(C)C)CC(=O)N1C [PP2644],HRAS/KRAS (ratio of KD value with respect to GDP-bound HRAS wild-type protein to KD value with respect to KRAS),[1]; class symbols,A (a compound having 10 or more and less than 20 is denoted as A)
same,NRAS/KRAS (ratio of KD value with respect to GDP-bound NRAS wild-type protein to KD value with respect to KRAS),[2]; class symbols,AA (a compound having 20 or more is denoted as AA)
CC[C@H](C)[C@@H]1NC(=O)[C@H](CC(C)C)N(C)C(=O)C[C@@H](C(=O)N(C)C)N(C)C(=O)[C@H](C2CCCC2)N(C)C(=O)C2(CCC2)NC(=O)[C@@H]2CCCN2C(=O)[C@H](CCc2cc(F)c(C(F)(F)F)c(F)c2)NC(=O)CN(C)C(=O)[C@H](Cc2ccc(C(F)(F)F)cc2)N2CCCC[C@@H](C2=O)N(C)C(=O)CN(C)C1=O [PP0574],HRAS/KRAS (ratio of KD value with respect to GDP-bound HRAS wild-type protein to KD value with respect to KRAS),[1]; SPR,B (a compound having 3 or more and less than 10 is denoted as B)
same,NRAS/KRAS (ratio of KD value with respect to GDP-bound NRAS wild-type protein to KD value with respect to KRAS),[2]; SPR,C (A compound having a KD ratio of 0.1 or more and less than 3 is denoted as C)
CCCN1C(=O)CN(C)C(=O)CNC(=O)[C@H]([C@@H](C)CC)NC(=O)[C@H](CC(C)C)N(C)C(=O)C[C@@H](C(=O)N2CCOCC2)NC(=O)[C@H](C2CCCC2)N(C)C(=O)C2(CCCC2)NC(=O)[C@@H]2CCCN2C(=O)[C@H](CCc2ccc(C(F)(F)F)c(Cl)c2)NC(=O)CN(C)C(=O)[C@@H]1Cc1ccc(C(F)(F)F)cc1 [PP0325] ([NMeL]IG[Sar][NPrPhe(4-CF3)][Sar][hPhe(3-Cl-4-CF3)]P[Ac5c][NMeGly(cPent)]D-Morpholide; lactam N-11),HRAS/KRAS (ratio of KD for GDP-bound HRAS wild-type to KD for KRAS),[1]; SPR,B (a compound having 3 or more and less than 10 is denoted as B)
same,NRAS/KRAS (ratio of KD for GDP-bound NRAS wild-type to KD for KRAS),[2]; SPR,B (a compound having 3 or more and less than 10 is denoted as B)
CCCN1CC(=O)NC2(CCCC2)C(=O)N(C)[C@@H](C2CCCC2)C(=O)N(C)[C@H](C(=O)N2CCOCC2)CC(=O)N(C)[C@@H](CC(C)C)C(=O)N[C@@H]([C@@H](C)CC)C(=O)N(C)CC(=O)N(C)CC(=O)N(CCC)[C@@H](Cc2ccc(C(F)(F)F)cc2)C(=O)N(C)CC(=O)N[C@@H](CCc2ccc(C(F)(F)F)c(Cl)c2)C1=O [PP0267] ([NMeL]I[Sar][Sar][NPrPhe(4-CF3)][Sar][hPhe(3-Cl-4-CF3)][NPrGly][Ac5c][NMeGly(cPent)][NMeD]-Morpholide; lactam N-11),HRAS/KRAS (ratio of KD for GDP-bound HRAS wild-type to KD for KRAS),[1]; SPR,B (a compound having 3 or more and less than 10 is denoted as B)
same,NRAS/KRAS (ratio of KD for GDP-bound NRAS wild-type to KD for KRAS),[2]; SPR,B (a compound having 3 or more and less than 10 is denoted as B)
